# Test results: patent publication US6555330B1, “Oncogene-induced apoptosis in drug-resistant cells” (Cold Spring Harbor Laboratory, priority 1996, dated 2003)
# Tests used:
# [1] = system: Interleukin-1β-converting enzyme-like proteases (ILPs); test: Fluorescent substrate (DEVD-AFC) assay for ILP activity in 293 cell extracts; format: biochemical, human; settings: for rate of ILP activation (dose response, free AFC generated per minute per milligram of extract): dialyzed S-100 extracts of 293 cells, various concentrations; for rate of ILP activation (dose response, free AFC generated per minute per milligram of extract) / free AFC (cleaved DEVD-AFC) generated in one minute by one milligram of extract: 60 minutes at 37° C.; for free AFC (cleaved DEVD-AFC) generated in one minute by one milligram of extract: 293 cell extracts, vanadate 5 mM, Granzyme B 2 U/ul added before shift
# Procedure: Interleukin-1β-converting enzyme-like proteases activity was measured by monitoring the cleavage of DEVD-AFC. This fluorogenic substrate DEVD-AFC consists of the peptide sequence (DEVD) which resembles the cleavage site in proteins that are degraded by ILPs, conjugated to amino-trifluoromethyl coumarin (AFC). When the peptide and the AFC molecule are attached the substrate is not fluorescent, when it is free it is fluorescent. […] The activated ILPs cleave the bond between the peptide and the AFC, resulting in increased fluorescence, which is detected using a fluorimeter. The assay is performed in a microtiter plate using the format essentially as described by Thomberry, N. A., Methods in Enzymology, 244:615-631 (1994). […] This period of time ranges from 0 to 90 minutes. During the preincubation period of a modulation assay, compounds that are to be assessed for their ability to activate or inhibit apoptosis are also introduced into the sample. Depending upon the purpose of the experiment the test compound may be present for the entire period of the preincubation or only a portion of the time. In order to measure the level of ILP activation 1 μl of extract is added to 200 μl of assay buffer (50 mM PIPES/KOH pH 7.0, 0.1 mM EDTA, 1 mM DTT, 10% glycerol) containing 20 μM DEVD-AFC (Enzyme Systems products). The release of free AFC was measured with a fluorescence plate reader, Cytofluor (Perspective Biosystems). The amount of fluorescence resulting from samples assayed in the presence and absence of potential modulatory compounds is compared to appropriate control samples and expressed as the number of free AFC molecules generated in one minutes by one milligram of cell extract.
# Identifying agents that modulate the apoptotic machinery of 293 cellular extracts Dialyzed S-100 extracts of 293 cells were incubated for 60 minutes at 37° C. with various concentrations of either ATP, EDTA or sodium ortho-vanadate. ILP activity was then measured using the fluorogenic substrate assay. (FIGS. 8A-C).
# To determine whether bcl-2 blocks ILP activation or inhibits the enzymatic activity of ILPs, bcl-2 was added to extracts either before or after incubation at 37° C. and monitored ILP activity by a quantitative enzymatic assay. Bc1-2 (40 μg/ml) was added to 293 extract either before incubation at 37° C. or after 15 minutes of the incubation (additions indicated by arrows). ILP activity against DEVD-AFC was measured as described above (FIG. 3).
# As described below, the system described above can be used to screen for compounds that effect ILP activation. […] Vanadate (0.1, l and 5 mM) was added to extracts from 293 cells and the extracts then shifted to 37° C. and incubated for 30 minutes. The rate of DEVD-AFC proteolysis was then determined.
# Vanadate (5 mM) was added to extracts either before 60 minutes incubation at 37° C. or after 60 minutes incubation. The extracts were then incubated for a further 60 minutes and the rate of DEVD-AFC proteolysis determined.
# Extracts from 293 cells were incubated for 60 minutes at 37° C. Where indicated vanadate (5 mM), Granzyme B (2 U/ul ) or DEVD-CMK (10 μM) was added before the extract was shifted to 37° C. After 60 minutes the rate of DEVD-AFC proteolysis was determined. Data is representative of two experiments. In parallel, nuclei (1×10^7/ml) were incubated at 37° C. for 60 minutes with extracts treated with vanadate (5 mM), Granzyme B (2 U/ul) or DEVD-CMK (10 μM) where indicated. Nuclei were also incubated at 4° C. with extract or at 37° C. with Granzyme B but no extract.
# Extracts were incubated at 37° C. and vanadate was added at the indicated times (arrows) to a final concentration of 5 mM. The rate of DEVD-AFC proteolysis in untreated extract (closed symbols) or vanadate treated extracts (open symbols) was measured at the indicated times. Data is representative of three experiments.
# [2] = system: ICE-like proteases (ILPs) in 293 cells; test: Affinity labeling of active ILPs in 293 cells; format: cell-based, human; settings: 293 cells treated with etoposide
# Procedure: (§1) Cells (2×10^6) were centrifuged (200 g, 5 minutes) and resuspended in […] MDB containing 10 μM biotinylated YVAD.AMK (plus protease inhibitors and […] cytochalasin B) and lysed by freeze/thawing for three cycles. The lysate was centrifuged (16,000 g, 20 minutes, 4° C.) and the supernatant incubated at 37° C. for 4 minutes to label active ILPs. The protein concentration was determined (Bradford assay), an equal volume of 2×SDS sample buffer added and the sample boiled for 5 minutes.
# (§2) Extracts were mixed with an equal volume of MDB containing 20 μM biotinylated YVAD.AMK and incubated at 37° C. for 4 minutes to label active ILPs. Labeling was stopped by adding an equal volume of 2×SDS sample buffer and samples were subjected to 15% SDS-PAGE. Proteins were transferred to a PVDF Immobilon P^SQ membrane (Millipore Corp.) and the membrane washed (methanol, 5 minutes) and dried (80° C., 15 minutes). The blot was incubated with avidin (1 μg/ml) followed by Biotin-horse radish peroxidase (0.05 μg/ml), and labeled proteins detected by ECL (Amersham Inc.).
# (§3) To avoid relying solely on the morphological manifestations of apoptosis, whether activation of ILPs, a biochemical hallmark of apoptosis, occurred in 293 cells treated with etoposide was also determined. Jurkat cells (2×10^6) or 293 cells (2×10^6) were incubated with biotin-YVAD-AMK, an affinity probe that labels active ILPs.
# Jurkat cells = test: Apoptotic nuclear morphology (DAPI) in intact Jurkat cells; format: cell-based; settings: etoposide 50 μM
# Procedure: (§4) Intact cells or isolated nuclei were fixed with 4% paraformaldehyde, stained with DAPI (1μg/ml) and examined by fluorescence microscopy. The percentage of cells showing apoptotic nuclear morphology was determined. Images were acquired using a Photometrics PXL CCD camera (Photometrics Ltd) controlled by Oncor Image software (Oncor Inc.). Figures were prepared using Adobe Photoshop software. Jurkat cells (1×10^5/ml) (FIG. 1A) or 293 cells (1×10^5/ml) (FIG. 1B) were incubated with or without etoposide (50 μM). Cells were fixed at the indicated times and stained with DAPI. The percentage of cells with apoptotic nuclear morphology was determined. Samples were also taken to assess ILP activation.
# 293 cells = test: Apoptotic nuclear morphology (DAPI) in intact 293 cells; format: cell-based, human; settings: etoposide 50 μM
# Procedure: as §4
# [3] = system: ICE-like proteases (ILPs) in Jurkat cells; test: Affinity labeling of active ILPs in Jurkat cells; format: cell-based; settings: Jurkat cells treated with etoposide
# Procedure: as §1, §2, §3
# [4] = system: apoptotic machinery of 293 cell extracts; test: In vitro apoptosis of isolated HeLa nuclei in 293 cell extracts; set-up: species or system human
# Procedure: Extracts were prepared essentially as described (Lazebnik, Y. A., et al., J. Cell. Biol., 123:7-22 (1993)). 293 cells (5-7×10^5 cells/ml)were washed and gently resuspended in 10× pellet volumes of extract preparation buffer (50 mM PIPES pH 7.0, 50 mM KCl, 5 mM EGTA, 2mM MgCl2, 1 mM DTT) plus 0.1 mM PMSF, 10 μg/ml cytochalasin B and 2 μg/ml each of chymostatin, pepstatin, leupeptin and antipain. Cells were immediately centrifuged (200 g, 5 minutes) and lysed by three cycles of freeze/thawing with liquid nitrogen. The lysate was centrifuged at 100,000 g for two hours, giving a cell extract. […]
# Intact cells or isolated nuclei were fixed with 4% paraformaldehyde, stained with DAPI (1μg/ml) and examined by fluorescence microscopy. The percentage of cells showing apoptotic nuclear morphology was determined. […]
# 293 cell extracts (10 μl) were incubated with isolated HeLa nuclei (1×10^5) for 60 minutes at 37° C. either alone or with biotin-YVAD-AMK (100 μM), an inhibitor of ILPs. After incubation aliquots of the reaction were fixed, stained with DAPI and examined by fluorescence microscopy.
# Extracts from E1A/E1B transformed MEFs or 293 cells (10 μl) were incubated with bcl-2 (40 μg/ml) for 10 minutes at 37° C. prior to further incubation with HeLa nuclei (1×10^5) for 60 minutes. Nuclei were fixed, stained with DAPI and examined by fluorescence microscopy. […]
# [5] = system: ICE-like proteases (ILPs), cpp32; test: Affinity labeling of ILPs and cpp32 immunoblotting in 293 cell extracts; format: biochemical, human; settings: Granzyme B added to 293 extracts treated with vanadate
# Procedure: as §2
# Affinity blots were re-probed to detect cpp32. These membranes were soaked in methanol for 5 minutes to inactivate horseradish peroxidase, dried and re-probed with a monoclonal antibody to cpp32 (Transduction Laboratories) followed by incubation with a secondary antibody conjugated to horseradish peroxidase. The antigen-antibody complex was detected by ECL (Amersham Inc).
# Prevention of apoptosis was achieved only if extracts were pre-incubated with bcl-2 before addition of nuclei. […] The same extracts were incubated alone, with buffer or with bcl-2 (40 μg/ml) for 70 minutes at 37° C. and active ILPs labeled with biotin YVAD.AMK (10 μM). Samples were subjected to 15% SDS-PAGE, transferred to a PVDF membrane and labeled ILPs visualized by ECL.
compound,measurement,setting,value
Nc1ncnc2c1ncn2[C@@H]1O[C@H](COP(=O)(O)OP(=O)(O)OP(=O)(O)O)[C@@H](O)[C@H]1O [ATP],"rate of ILP activation (dose response, free AFC generated per minute per milligram of extract)",[1],increases the rate of ILP activation
O=C(O)CN(CCN(CC(=O)O)CC(=O)O)CC(=O)O [EDTA],"rate of ILP activation (dose response, free AFC generated per minute per milligram of extract)",[1],decreases the rate of ILP activation
COc1cc([C@@H]2c3cc4c(cc3[C@@H](O[C@@H]3O[C@@H]5CO[C@@H](C)O[C@H]5[C@H](O)[C@H]3O)[C@H]3COC(=O)[C@H]23)OCO4)cc(OC)c1O [etoposide],active ILPs detected by biotin-YVAD-AMK affinity labeling,[2],No active ILPs were detected
same,induction of apoptotic morphology,Jurkat cells,sufficient to kill Jurkat cells
same,induction of apoptotic morphology,293 cells,no morphological signs of apoptosis
same,active ILPs detected by biotin-YVAD-AMK affinity labeling,[3],multiple active ILPs were detected
"[Na+].[Na+].[Na+].[O]=[V]([O-])([O-])[O-] [vanadate, sodium ortho vanadate]",free AFC (cleaved DEVD-AFC) generated in one minute by one milligram of extract,[1],1.4 pmol/min
same,"rate of ILP activation (dose response, free AFC generated per minute per milligram of extract)",[1],decreases the rate of ILP activation
same,ILP activity (rate of DEVD-AFC proteolysis),"[1]; vanadate 5 mM added after 60 minutes incubation at 37° C. (ILPs already active), further 60 minutes",had no effect on ILP activity
same,process of ILP activation (rate of DEVD-AFC proteolysis),[1]; vanadate 5 mM added at different times after shift of 293 extract to 37° C.,arrested the process of ILP activation irrespective of when it was added
same,inhibition of ILP activation,"[1]; vanadate 5 mM added before shift to 37° C., all extracts",complete inhibition
same,rate of DEVD-AFC proteolysis,"[1]; vanadate 0.1, 1 and 5 mM added before shifting 293 extract to 37° C., 30 minutes",inhibited cleavage of DEVD-AFC
Granzyme B: a serine protease which activates ILPs directly,free AFC (cleaved DEVD-AFC) generated in one minute by one milligram of extract,[1],0 pmol/min
same,effect on vanadate inhibition of ILP activity,[1]; Granzyme B 2 U/ul added to 293 extracts treated with vanadate 5 mM,completely overcame vanadate inhibition
same,effect on vanadate inhibition of in vitro apoptosis (nuclei),"[4]; Granzyme B 2 U/ul added to 293 extracts treated with vanadate 5 mM, nuclei 60 minutes at 37° C.",completely overcame vanadate inhibition
same,"ILP activation and cpp32 processing (affinity labeling, immuno-blotting)",[5],resulted in ILP activation and cpp32 processing
biotin-YVAD-acyloxymethylketone [biotin YVAD-amk],nuclear morphological changes of apoptosis in HeLa nuclei,"[4]; 293 cell extract, inhibitor 100 μM, 60 minutes at 37° C.",prevented the nuclear morphological changes of apoptosis
